Source: ChEMBL document CHEMBL1201862, “PubChem BioAssay data set” (2004)
Active and inactive are the calls of the source.

How the values were obtained:
[1] = target: T1, Long-chain-fatty-acid--AMP ligase FadD28 (Mycobacterium tuberculosis, UniProt P9WQ59); experiment: Fluorescence polarization aasay to screen for inhibitors that compete for the binding of FadD28 to a bisubstrate Measured in Biochemical System Using Plate Reader - 2147-01_Inhibitor_Dose_CherryPick_Activity.; type: functional, Mycobacterium tuberculosis H37Rv
T1 sequence (P9WQ59 whole entry): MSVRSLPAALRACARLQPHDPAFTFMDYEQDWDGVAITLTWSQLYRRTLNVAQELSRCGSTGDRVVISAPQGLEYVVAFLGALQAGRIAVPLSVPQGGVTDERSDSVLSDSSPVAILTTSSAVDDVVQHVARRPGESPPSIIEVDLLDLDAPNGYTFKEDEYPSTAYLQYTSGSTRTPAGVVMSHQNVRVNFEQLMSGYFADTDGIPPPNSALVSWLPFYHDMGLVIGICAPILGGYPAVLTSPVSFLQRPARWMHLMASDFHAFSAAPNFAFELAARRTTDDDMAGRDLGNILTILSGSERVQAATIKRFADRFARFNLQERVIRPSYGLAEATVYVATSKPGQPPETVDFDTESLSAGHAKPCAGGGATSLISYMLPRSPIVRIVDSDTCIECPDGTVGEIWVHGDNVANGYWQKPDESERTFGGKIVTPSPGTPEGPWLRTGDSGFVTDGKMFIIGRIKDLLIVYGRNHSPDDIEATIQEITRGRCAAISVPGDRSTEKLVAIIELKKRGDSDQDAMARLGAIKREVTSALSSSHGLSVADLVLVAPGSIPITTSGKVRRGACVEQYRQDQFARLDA

[2] = target: T2, Hepatocyte nuclear factor 4-alpha (Homo sapiens, UniProt P41235); type: functional, cell-based;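 further: biochemical luminescence-based dose-response counterscreen measuring inhibition of HNF4 dimerization, run alongside a screen for blockers of ABHD5–perilipin-5 interaction; split luciferase complementation of HNF4 fusion proteins in cell lysate measuring dimerization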
T2 sequence (P41235 whole entry): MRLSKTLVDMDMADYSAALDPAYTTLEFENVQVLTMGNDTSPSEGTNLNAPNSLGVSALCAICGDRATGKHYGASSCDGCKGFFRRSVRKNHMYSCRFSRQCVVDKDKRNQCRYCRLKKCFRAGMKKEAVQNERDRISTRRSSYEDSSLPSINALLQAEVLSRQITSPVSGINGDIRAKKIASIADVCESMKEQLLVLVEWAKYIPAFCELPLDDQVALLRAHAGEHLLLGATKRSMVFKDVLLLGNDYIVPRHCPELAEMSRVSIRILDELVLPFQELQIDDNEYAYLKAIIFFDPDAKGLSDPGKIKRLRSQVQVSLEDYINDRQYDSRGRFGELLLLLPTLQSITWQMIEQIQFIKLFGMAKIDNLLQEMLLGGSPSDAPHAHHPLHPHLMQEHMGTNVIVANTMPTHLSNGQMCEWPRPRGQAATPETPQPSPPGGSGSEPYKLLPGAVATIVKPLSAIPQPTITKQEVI

[3] = target: T3, Methionyl-tRNA synthetase, putative (Trypanosoma brucei brucei, UniProt Q38C91); type: functional, Trypanosoma brucei brucei strain 927/4 GUTat10.1
T3 sequence (Q38C91 whole entry): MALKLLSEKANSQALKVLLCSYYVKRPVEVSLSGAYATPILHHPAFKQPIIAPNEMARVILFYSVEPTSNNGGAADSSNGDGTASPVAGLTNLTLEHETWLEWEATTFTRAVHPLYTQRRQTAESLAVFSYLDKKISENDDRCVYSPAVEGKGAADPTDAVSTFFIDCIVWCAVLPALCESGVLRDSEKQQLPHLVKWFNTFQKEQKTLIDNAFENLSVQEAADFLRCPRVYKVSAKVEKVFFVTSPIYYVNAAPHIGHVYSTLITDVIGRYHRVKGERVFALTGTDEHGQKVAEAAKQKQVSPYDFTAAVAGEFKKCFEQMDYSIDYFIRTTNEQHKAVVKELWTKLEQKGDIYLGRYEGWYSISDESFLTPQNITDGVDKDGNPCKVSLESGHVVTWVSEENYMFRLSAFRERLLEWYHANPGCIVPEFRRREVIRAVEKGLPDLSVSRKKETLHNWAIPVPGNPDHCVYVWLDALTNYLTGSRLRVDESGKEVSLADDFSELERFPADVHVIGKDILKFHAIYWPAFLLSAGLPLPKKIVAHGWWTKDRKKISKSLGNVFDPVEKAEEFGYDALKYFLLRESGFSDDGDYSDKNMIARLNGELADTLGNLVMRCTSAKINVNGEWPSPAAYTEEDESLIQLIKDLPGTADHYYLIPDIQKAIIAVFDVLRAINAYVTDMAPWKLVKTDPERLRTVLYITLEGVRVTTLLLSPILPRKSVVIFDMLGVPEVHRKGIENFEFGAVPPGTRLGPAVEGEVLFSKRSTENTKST

[4] = Counterscreen for inhibitors of Trypanosoma brucei methionyl tRNA synthetase (MetRS): Luminescence-based cell-based high throughput dose response assay to identify compounds that are cytotoxic to Jurkat human T lymphocyte cells.; type: functional
[5] = target: T3, Methionyl-tRNA synthetase, putative; type: functional, Trypanosoma brucei brucei strain 927/4 GUTat10.1; remark: listed apart in the source
Major prion protein = Major prion protein (Homo sapiens, UniProt P04156); type: functional, cell-based
cells [6] = experiment: cells
[7] = target: T4, Rac GTPase-activating protein 1 (Homo sapiens, UniProt Q9H0H5); experiment: MgcRacGAP GTPase-activating activity inhibitors, confirmation, biochemical, ADP Hunter fluorescence, primary and confirmatory (AID 624330); type: functional
T4 sequence (Q9H0H5 whole entry): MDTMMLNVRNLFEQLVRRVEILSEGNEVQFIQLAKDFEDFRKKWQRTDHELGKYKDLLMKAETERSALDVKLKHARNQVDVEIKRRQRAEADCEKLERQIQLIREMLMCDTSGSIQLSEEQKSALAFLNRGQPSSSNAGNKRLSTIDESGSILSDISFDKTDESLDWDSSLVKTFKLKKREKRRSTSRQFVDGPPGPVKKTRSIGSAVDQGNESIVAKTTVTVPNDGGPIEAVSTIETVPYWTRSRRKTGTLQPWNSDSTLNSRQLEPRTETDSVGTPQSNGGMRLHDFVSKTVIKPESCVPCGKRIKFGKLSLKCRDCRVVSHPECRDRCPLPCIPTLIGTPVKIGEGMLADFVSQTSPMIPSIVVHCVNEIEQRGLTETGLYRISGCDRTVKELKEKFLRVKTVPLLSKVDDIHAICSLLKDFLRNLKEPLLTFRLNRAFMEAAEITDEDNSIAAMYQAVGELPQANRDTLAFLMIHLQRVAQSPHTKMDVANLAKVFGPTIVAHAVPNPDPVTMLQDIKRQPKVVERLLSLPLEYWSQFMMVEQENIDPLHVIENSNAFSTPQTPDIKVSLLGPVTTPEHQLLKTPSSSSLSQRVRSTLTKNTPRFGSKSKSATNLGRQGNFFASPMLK

[8] = AlphaScreen signal interference compounds, dose response, artefact control for ARNT-TACC3 interaction inhibitor project, biochemical, luminescence, cherry-pick (AID 651705); type: functional;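 further: AlphaScreen bead proximity signal that flags compounds interfering with the detection technology; potency reflects signal decrease which marks the compound as an assay artifact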
[9] = Luminescence Cell-Based Dose Retest to Confirm Inhibitors of Cancer Stem Cells. [Related pubchem assays (depositor defined):AID2717, AID2721]; type: functional; conditions: Homo sapiens
Paired box protein Pax-8 = Paired box protein Pax-8 (Homo sapiens, UniProt Q06710); experiment: inhibitors of PAX8-driven TPO luciferase reporter, dose response, RMG-I cells, cherry-pick (AID 687027); type: functional, cell-based;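 further: luciferase reporter driven by Pax8 target thyroperoxidase promoter measured by SteadyGlo luminescence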
[10] = cytotoxicity in OVCAR8 ovarian cancer cells, dose response, PAX8 project, cell-based, plate reader, dry powder samples (AID 743197); type: functional; conditions: OVCAR-8
[11] = target: T5, DNA repair and recombination protein RAD54-like (Homo sapiens, UniProt Q92698); experiment: inhibitors of human RAD54 branch migration, confirmation, biochemical, fluorescence, cherry-picked samples, dose series (AID 651657); type: functional
T5 sequence (Q92698 whole entry): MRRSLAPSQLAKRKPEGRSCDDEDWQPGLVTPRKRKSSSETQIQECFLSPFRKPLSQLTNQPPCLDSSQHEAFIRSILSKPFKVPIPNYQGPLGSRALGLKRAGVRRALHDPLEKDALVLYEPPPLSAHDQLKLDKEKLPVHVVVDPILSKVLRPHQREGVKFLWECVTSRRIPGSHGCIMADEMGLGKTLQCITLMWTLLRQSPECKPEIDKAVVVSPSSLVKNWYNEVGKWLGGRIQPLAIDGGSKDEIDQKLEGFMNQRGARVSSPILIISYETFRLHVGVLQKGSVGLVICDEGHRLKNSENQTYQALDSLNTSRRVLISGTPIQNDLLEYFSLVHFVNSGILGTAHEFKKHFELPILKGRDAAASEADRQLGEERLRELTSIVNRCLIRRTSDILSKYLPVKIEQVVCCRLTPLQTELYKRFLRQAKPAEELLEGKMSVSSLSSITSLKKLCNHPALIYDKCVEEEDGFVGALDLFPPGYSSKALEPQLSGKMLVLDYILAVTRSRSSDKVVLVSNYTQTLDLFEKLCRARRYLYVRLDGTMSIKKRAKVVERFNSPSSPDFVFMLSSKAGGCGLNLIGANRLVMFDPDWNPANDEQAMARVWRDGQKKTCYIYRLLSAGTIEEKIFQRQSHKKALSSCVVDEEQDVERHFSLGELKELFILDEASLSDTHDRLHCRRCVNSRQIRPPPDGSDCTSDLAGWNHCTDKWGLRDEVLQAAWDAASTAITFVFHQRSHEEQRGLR

[12] = target: T6, DNA repair protein RAD52 homolog (Homo sapiens, UniProt P43351); type: functional, biochemical
T6 sequence (P43351 whole entry): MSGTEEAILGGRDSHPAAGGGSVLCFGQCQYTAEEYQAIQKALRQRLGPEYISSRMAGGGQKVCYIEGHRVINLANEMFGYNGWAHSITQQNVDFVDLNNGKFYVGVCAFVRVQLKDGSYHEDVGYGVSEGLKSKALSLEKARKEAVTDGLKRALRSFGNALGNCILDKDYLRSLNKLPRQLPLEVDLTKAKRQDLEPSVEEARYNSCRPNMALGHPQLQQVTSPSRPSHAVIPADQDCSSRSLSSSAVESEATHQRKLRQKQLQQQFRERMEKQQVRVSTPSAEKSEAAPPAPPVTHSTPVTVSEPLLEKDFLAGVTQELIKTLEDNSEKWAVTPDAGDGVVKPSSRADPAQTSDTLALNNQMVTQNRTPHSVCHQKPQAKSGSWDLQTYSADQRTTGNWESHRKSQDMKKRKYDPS

[13] = target: T7, Microphthalmia-associated transcription factor (Homo sapiens, UniProt O75030); experiment: TRPM1 promoter luciferase signal decrease, dose response, MITF inhibitor project, cell-based, SK-MEL-5, cherry-picked, set 3 (AID 493073); type: functional
T7 sequence (O75030 whole entry): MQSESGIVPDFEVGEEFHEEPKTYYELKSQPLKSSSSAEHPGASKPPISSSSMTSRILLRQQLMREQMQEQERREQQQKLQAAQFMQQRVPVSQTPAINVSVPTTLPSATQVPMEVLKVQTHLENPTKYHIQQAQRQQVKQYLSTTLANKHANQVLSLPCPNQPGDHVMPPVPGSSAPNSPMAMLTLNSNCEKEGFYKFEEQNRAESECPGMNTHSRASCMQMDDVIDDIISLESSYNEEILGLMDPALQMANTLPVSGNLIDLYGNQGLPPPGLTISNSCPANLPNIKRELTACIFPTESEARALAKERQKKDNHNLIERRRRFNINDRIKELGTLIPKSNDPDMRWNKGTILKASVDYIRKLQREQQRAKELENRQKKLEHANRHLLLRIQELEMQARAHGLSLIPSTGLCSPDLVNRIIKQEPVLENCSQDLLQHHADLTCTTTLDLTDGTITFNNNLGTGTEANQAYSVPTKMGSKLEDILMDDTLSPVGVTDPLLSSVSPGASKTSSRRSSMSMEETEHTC

cells [14] = type: functional, cell-based
INS1 = experiment: beta cell apoptosis inhibitors, cytokine rescue, dose response, luminescence, retest (AID 449756); type: functional, cell-based; conditions: Rattus norvegicus;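 further: cell death triggered by IL-1 beta plus TNF-alpha plus IFN-gamma mixture; protective hits raise ATP signal compared with cytokine alone wells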
H9c2 = experiment: cells; type: functional, cell-based; conditions: Rattus norvegicus, H9c2, Myocardium;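 further: confirmatory concentration-response retest of ultra-high-throughput screening hits for modulation of myocardial damage; cell death induced by hydrogen peroxide oxidative stress; compound pretreatment for 60 min then peroxide exposure for 2 h; potency is for protecting the cells against peroxide damage rather than for killing them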
cells [15] = type: functional, cell-based; remark: listed apart in the source

In the case of Cc1cccc(OCC(=O)N/N=C\c2cn(C)c3ccccc23)c1, the AC50 [1] is reported as 14.6 µM (active).
With CCCCCNC(=O)C(c1cc2ccccc2o1)n1c(=O)c(-c2ccco2)nc2ccccc21 (stereo unspecified) the IC50 [2] was 2 µM (active).
For Cc1cccc(NS(=O)(=O)c2c(C)[nH]c(C)c2C(=O)N2CCCC2)c1, the IC50 [3] was 11.8 µM (inactive), the IC50 [4] was 83.3 µM (inactive) and the IC50 [5] was 35.4 µM (inactive).
In the case of NC(=O)CSc1nc(-c2ccccc2)nc2ccccc12, the IC50 (Major prion protein) is reported as 6.23 µM (active) and the IC50 (cells [6]) is reported as > 138 µM (inactive).
In the case of NC(=O)C(C(=O)/C=C/c1ccc(Cl)cc1)=C1SCCS1, the IC50 [2] is reported as 12.1 µM (inactive).
In the case of Cc1cccc(NC(=O)CCC(=O)N/N=C/c2ccc(O)cc2O)c1, the IC50 [7] is reported as 62.8 µM (active), the AC50 [8] is reported as 118 µM (active) and the AC50 [9] is reported as 9.74 µM (active).
With C[C@H](CO)N1C[C@H](C)[C@H](CN(C)Cc2ccc(C(F)(F)F)cc2)Oc2ccc(NS(=O)(=O)c3ccc(F)cc3)cc2CC1=O the AC50 (Paired box protein Pax-8) was 11.4 µM (active) and the AC50 [10] was 52.5 µM (active).
In the case of CCN1CCN(c2ccc(Nc3ccnc4ccccc34)cc2)CC1, the AC50 [11] is reported as 12.2 µM (active), the AC50 [12] is reported as 3.19 µM (active) and the AC50 [13] is reported as 12.3 µM (active).
With CCOc1ccc(NC(=O)CCSc2ccc3ccccc3n2)cc1 the IC50 (Major prion protein) was 9.01 µM (active) and the IC50 (cells [6]) was > 138 µM (inactive).
In the case of CCOC(=O)c1c(CN2CCCCC2)n(C)c2cc(Br)c(OC)cc12, the AC50 [11] is reported as 36.3 µM (active).
With Cc1cccn2c(=O)c3cc(C(=O)NCc4ccccc4)c(=N)n(CCCN4CCOCC4)c3nc12 the AC50 [11] was 15.3 µM (active).
With CCc1ccc(NC(=O)CSc2ccc(-c3ccccn3)nn2)cc1 the EC50 (cells [14]) was 160 µM (active), the AC50 (INS1) was 9.24 µM (active) and the AC50 [8] was 87 µM (active). The IC50 (H9c2) was > 79 µM (inactive) and the EC50 (cells [15]) was > 350 µM (not active).
In the case of OC(c1cc(F)cc(Cl)c1)c1nc(-c2ccc3ccccc3c2)c[nH]1 (stereo unspecified), the IC50 [3] is reported as 2.45 µM (active), the IC50 [4] is reported as 83.3 µM (inactive) and the IC50 [5] is reported as 1.46 µM (active).
In the case of COC(=O)COc1ccc(Cl)cc1C1Nc2ccccc2C(=O)N1c1ccc(OC)cc1 (stereo unspecified), the AC50 [1] is reported as > 100 µM (inactive).
In the case of COC(=O)CSc1ccnc2cc(Cl)ccc12, the IC50 (Major prion protein) is reported as 5.16 µM (active) and the IC50 (cells [6]) is reported as > 138 µM (inactive).
